Measurements from patent publication US8263656B2 (Hoffmann-La Roche Inc., priority 2008, dated 2012).

Molecular target: T1, human CRTH2 (Homo sapiens, UniProt Q9Y5Y4)
T1 construct: expressed in transfected cells
T1 sequence (Q9Y5Y4 1-395): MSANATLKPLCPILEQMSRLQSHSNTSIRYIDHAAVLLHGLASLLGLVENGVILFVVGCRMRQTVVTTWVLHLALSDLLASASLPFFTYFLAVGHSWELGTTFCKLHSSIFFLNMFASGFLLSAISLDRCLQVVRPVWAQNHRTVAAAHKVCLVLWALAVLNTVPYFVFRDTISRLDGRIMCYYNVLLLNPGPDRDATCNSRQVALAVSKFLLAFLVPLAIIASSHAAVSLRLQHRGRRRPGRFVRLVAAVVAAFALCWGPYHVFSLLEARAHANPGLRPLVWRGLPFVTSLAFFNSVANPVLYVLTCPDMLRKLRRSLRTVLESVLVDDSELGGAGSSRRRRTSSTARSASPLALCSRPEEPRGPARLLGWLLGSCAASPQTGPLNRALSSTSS
Assay: Human CRTH2 Receptor Binding Assay (whole cell, [3H]ramatroban competition)
Conditions: CHO-K1 cells expressing human CRTH2 and G-alpha16; 20 nM [3H]ramatroban; 1 hour, room temperature
Excerpt: A whole cell receptor binding assay using [^3H]ramatroban as the competing radioactive ligand was employed to evaluate the compound binding activity to human CRTH2. The radioactive ligand [^3H]ramatroban was synthesized according to Sugimoto et. al. (Eur. J. Pharmacol. 524, 30-37, 2005) to a specific activity of 42 Ci/mmol.
A cell line stably expressing human CRTH2 was established by transfecting CHO-K1 cells with two mammalian expression vectors that harbored human CRTH2 and G-alpha16 cDNAs, respectively, using FuGene® 6 transfection reagent (from Roche). Stable clones expressing CRTH2 were selected by staining each clone with BM16 (BD Pharmingen™ from BD Biosciences, a division of Becton, Dickinson and Company), which is a rat monoclonal antibody to human CRTH2. The cells were maintained as monolayer cultures in Ham's F-12 medium containing 10% fetal bovine serum, 100 units/mL penicillin, […] streptomycin, 2 mM glutamine, 0.5 mg/mL G418 (geneticin) for CRTH2, and 0.2 mg/mL hygromycin-B (for G-alpha 16). For whole cell receptor binding assay, the monolayer cells were rinsed once with PBS (phosphate buffered saline), dissociated using diammonium ethylenediaminetetraacetate (Versene™ EDTA from the Dow Chemical Company), and suspended in PBS containing 10 mM MgCl2 and 0.06% BSA (bovine serum albumin) at 1.5×10^6 cells/mL.
The binding reactions (0.2 mL) were performed in 96-well plates at room temperature in PBS containing 1.5×10^5 cells, 10 mM MgCl2, 0.06% BSA, 20 nM [^3H]ramatroban, and test compound at various concentrations. After 1 hour of binding reactions, the cells were harvested on GF™/B filter microplates (microtiter plates with embedded glass fiber from PerkinElmer, Inc.) and washed 5 times with PBS using a Filtermate™ Harvester (a cell harvester that harvests and washes cells from microplates from PerkinElmer, Inc.). The radioactivities bound to the cells were determined using a microplate scintillation counter (TopCount® NXT, from PerkinElmer, Inc.) after adding 50 μL of Microscint™ 20 scintillation fluid (from PerkinElmer, Inc.) to each well of the filter plates. The radioactivity from non-specific binding was determined by replacing compound with 10 μM of 15(R)-15-methyl PGD2 (from Cayman Chemical Company) in the reaction mixtures. The radioactivity bound to the cells in the absence of compound (total binding) was determined by replacing compound with 0.25% of DMSO (dimethyl sulfoxide) in the reaction mixture. Specific binding data were obtained by subtracting the radioactivity of non-specific binding from each binding data.
The IC50 value is defined as the concentration of the tested compound that is required for 50% inhibition of total specific binding. In order to calculate the IC50 value, the percent inhibition data were determined for 7 concentrations for each compound. The percent inhibition for a compound at each concentration was calculated according to the following formula, [1-(specific binding in the presence of compound)/(total specific binding)]×100. The IC50 value was then obtained by fitting the percent inhibition data to a sigmoidal dose-response (4 parameter logistic) model in the XLfit® software Excel add-in program [from ID Business Solutions Ltd., model 205, where F(x)=(A+(B−A)/(1+((C/x)^D)))].

Structure (SMILES) | IC50 [nM]
CN(C1CCCc2c1cc(F)c(F)c2OCC(=O)O)S(=O)(=O)c1cc(Cl)ccc1Cl (centres unmarked) [Example 2-21, {5-[(2,5-Dichloro-benzenesulfonyl)-methyl-amino]-2,3-difluoro-5,6,7,8-tetrahydro-naphthalen-1-yloxy}-acetic acid] | 2100
O=C(O)COc1c(F)c(Cl)cc2c1CCC[C@H]2NS(=O)(=O)c1ccc(Cl)cc1Cl [Example 1-40, [(R)-3-Chloro-5-(2,4-dichloro-benzenesulfonyl-amino)-2-fluoro-5,6,7,8-tetrahydro-naphthalen-1-yloxy]-acetic acid] | 6.3
CN(C1CCCc2c(OCC(=O)O)cc(Cl)cc21)S(=O)(=O)c1ccc(Cl)cc1Cl (centres unmarked) [Example 2-6, {3-Chloro-5-[(2,4-dichloro-benzenesulfonyl)-methyl-amino]-5,6,7,8-tetrahydro-naphthalen-1-yloxy}-acetic acid] | 92.9
O=C(O)COc1cc(F)cc2c1CCCC2NS(=O)(=O)c1cc(Cl)ccc1Cl (centres unmarked) [Example 1-33, [5-(2,5-Dichloro-benzenesulfonyl-amino)-3-fluoro-5,6,7,8-tetrahydro-naphthalen-1-yloxy]-acetic acid] | 81
O=C(O)COc1cc(Cl)cc2c1CCC[C@H]2NS(=O)(=O)c1cc(Cl)ccc1Cl [Example 1-43, [(R)-3-Chloro-5-(2,5-dichloro-benzenesulfonyl-amino)-5,6,7,8-tetrahydro-naphthalen-1-yloxy]-acetic acid] | 10.9
CN(C1CCCc2c1cc(F)c(F)c2OCC(=O)O)S(=O)(=O)c1ccc(Cl)cc1Cl (centres unmarked) [Example 2-18, {5-[(2,4-Dichloro-benzenesulfonyl)-methyl-amino]-2,3-difluoro-5,6,7,8-tetrahydro-naphthalen-1-yloxy}-acetic acid] | 2520
O=C(O)COc1cc(Cl)cc2c1CCC[C@H]2NS(=O)(=O)c1cc(Br)cc(C(F)(F)F)c1 [Example 1-42, [(R)-5-(3-Bromo-5-trifluoromethyl-benzenesulfonyl-amino)-3-chloro-5,6,7,8-tetrahydro-naphthalen-1-yloxy]-acetic acid] | 3.2
CC(C)c1cccc(-c2ccc(S(=O)(=O)NC3CCCc4c(OCC(=O)O)cc(Cl)cc43)nc2)c1 (centres unmarked) [Example 1-36, {3-Chloro-5-[5-(3-isopropyl-phenyl)-pyridine-2-sulfonylamino]-5,6,7,8-tetrahydro-naphthalen-1-yloxy}-acetic acid] | 4.5
CN(C1CCCc2c1cc(Cl)c(F)c2OCC(=O)O)S(=O)(=O)c1cc(Br)cc(C(F)(F)F)c1 (centres unmarked) [Example 2-12, {5-[(3-Bromo-5-trifluoromethyl-benzenesulfonyl)-methyl-amino]-3-chloro-2-fluoro-5,6,7,8-tetrahydro-naphthalen-1-yloxy}-acetic acid] | 12.3
CC(C)c1cccc(-c2ccc(S(=O)(=O)NC3CCCc4c3cc(F)c(F)c4OCC(=O)O)nc2)c1 (centres unmarked) [Example 1-34, {2,3-Difluoro-5-[5-(3-isopropyl-phenyl)-pyridine-2-sulfonylamino]-5,6,7,8-tetrahydro-naphthalen-1-yloxy}-acetic acid] | 8.6

The remaining lines, values ahead:

IC50 [nM] | Structure (SMILES)
2.5 | O=C(O)COc1cc(Br)cc2c1CCC[C@H]2NS(=O)(=O)c1cc(C(F)(F)F)cc(C(F)(F)F)c1 [Example 1-20, [(R)-5-(3,5-Bis-trifluoromethyl-benzenesulfonyl-amino)-3-bromo-5,6,7,8-tetrahydro-naphthalen-1-yloxy]-acetic acid]
26.1 | O=C(O)COc1c(Cl)c(Cl)cc2c1CCCC2NS(=O)(=O)c1cc(C(F)(F)F)cc(C(F)(F)F)c1 (centres unmarked) [Example 1-12, [5-(3,5-Bis-trifluoromethyl-benzenesulfonyl-amino)-2,3-dichloro-5,6,7,8-tetrahydro-naphthalen-1-yloxy]-acetic acid]
3.4 | O=C(O)COc1c(F)c(Cl)cc2c1CCC[C@H]2NS(=O)(=O)c1cc(F)cc(C(F)(F)F)c1 [Example 1-38, [(R)-3-Chloro-2-fluoro-5-(3-fluoro-5-trifluoromethyl-benzenesulfonyl-amino)-5,6,7,8-tetrahydro-naphthalen-1-yloxy]-acetic acid]
5.9 | CN([C@@H]1CCCc2c(OCC(=O)O)cc(Cl)cc21)S(=O)(=O)c1cc(C(F)(F)F)cc(C(F)(F)F)c1 [Example 2-5, {(R)-5-[(3,5-Bis-trifluoromethyl-benzenesulfonyl)-methyl-amino]-3-chloro-5,6,7,8-tetrahydro-naphthalen-1-yloxy}-acetic acid]
2.4 | O=C(O)COc1c(F)c(Cl)cc2c1CCC[C@H]2NS(=O)(=O)c1cc(C(F)(F)F)cc(C(F)(F)F)c1 [Example 1-1, [(R)-5-(3,5-Bis-trifluoromethyl-benzenesulfonylamino)-3-chloro-2-fluoro-5,6,7,8-tetrahydro-naphthalen-1-yloxy]-acetic acid]
3.8 | O=C(O)COc1cc(Cl)cc2c1CCCC2NS(=O)(=O)c1cc(F)cc(C(F)(F)F)c1 (centres unmarked) [Example 1-16, [3-Chloro-5-(3-fluoro-5-trifluoromethyl-benzenesulfonyl-amino)-5,6,7,8-tetrahydro-naphthalen-1-yloxy]-acetic acid]
333 | CN(C1CCCc2c1cc(Cl)c(Cl)c2OCC(=O)O)S(=O)(=O)c1cc(C(F)(F)F)cc(C(F)(F)F)c1 (centres unmarked) [Example 2-7, {5-[(3,5-Bis-trifluoromethyl-benzenesulfonyl)-methyl-amino]-2,3-dichloro-5,6,7,8-tetrahydro-naphthalen-1-yloxy}-acetic acid]
5.8 | O=C(O)COc1c(F)c(Cl)cc2c1CCCC2NS(=O)(=O)c1cc(C(F)(F)F)cc(C(F)(F)F)c1 (centres unmarked) [Example 1-9, [5-(3,5-Bis-trifluoromethyl-benzenesulfonyl-amino)-3-chloro-2-fluoro-5,6,7,8-tetrahydro-naphthalen-1-yloxy]-acetic acid]
2.8 | O=C(O)COc1c(F)c(Cl)cc2c1CCCC2NS(=O)(=O)c1cc(F)cc(C(F)(F)F)c1 (centres unmarked) [Example 1-21, [3-Chloro-2-fluoro-5-(3-fluoro-5-trifluoromethyl-benzenesulfonyl-amino)-5,6,7,8-tetrahydro-naphthalen-1-yloxy]-acetic acid]
18.2 | O=C(O)COc1c(F)c(F)cc2c1CCCC2NS(=O)(=O)c1cc(Br)cc(C(F)(F)F)c1 (centres unmarked) [Example 1-29, [5-(3-Bromo-5-trifluoromethyl-benzenesulfonyl-amino)-2,3-difluoro-5,6,7,8-tetrahydro-naphthalen-1-yloxy]-acetic acid]
3.7 | O=C(O)COc1cc(-c2ccccc2)cc2c1CCCC2NS(=O)(=O)c1cc(C(F)(F)F)cc(C(F)(F)F)c1 (centres unmarked) [Example 1-24, [5-(3,5-Bis-trifluoromethyl-benzenesulfonyl-amino)-3-phenyl-5,6,7,8-tetrahydro-naphthalen-1-yloxy]-acetic acid]
64 | CCc1ccc2c(c1OCC(=O)O)CCCC2NS(=O)(=O)c1cc(C(F)(F)F)cc(C(F)(F)F)c1 (centres unmarked) [Example 1-4, [5-(3,5-Bis-trifluoromethyl-benzenesulfonyl-amino)-2-ethyl-5,6,7,8-tetrahydro-naphthalen-1-yloxy]-acetic acid]
95.9 | O=C(O)COc1c(Cl)ccc2c1CCC[C@H]2NS(=O)(=O)c1cc(C(F)(F)F)cc(C(F)(F)F)c1 [Example 1-25, [(R)-5-(3,5-Bis-trifluoromethyl-benzenesulfonyl-amino)-2-chloro-5,6,7,8-tetrahydro-naphthalen-1-yloxy]-acetic acid]
